Experimental findings from ChEMBL document CHEMBL3507680, “University of Dundee, Gates Library screen for HepG2 cell viability” are described below.

This series is described as follows: Human HepG2 cell viability assay in 384 well format. The series is classed as toxicity, cell-based. On the set-up: dose 125 nL, time 70.5 hour; concentration not given beside the values. To be noted: HepG2 cells, read-out: Inhibition.

Structures are written as SMILES.

In the case of `NC(=O)c1ccc(N2CCN(Cc3cccc4nsnc34)CC2)nc1`, the cytotoxicity at 70.5 h was -4.59%.

Consider `CN1C(=O)[C@H]2CC[C@@H]1CN(C(=O)Nc1ccccc1C(F)(F)F)C2`, for which the cytotoxicity at 70.5 h is -4.06%.

For `CCO[C@H]1C[C@@H](O)C12CCN(C1Cc3ccccc3C1)CC2`, the cytotoxicity at 70.5 h is -10.5%.

Regarding `O=C(O)c1ccc(CNC(=O)C2CCN(Cc3ccco3)CC2)s1`, the cytotoxicity at 70.5 h was -3.49%.

For `CC(C)c1nc(CNC(=O)c2ccc(C(C)N3CCCCC3)o2)cs1` (configuration not stated), the cytotoxicity at 70.5 h worked out at 11.9%.

For the molecule `Cc1cc(C)c2c(N3CCN(C(=O)N4CCOCC4)CC3)ncnc2n1`, the cytotoxicity at 70.5 h worked out at 30.5%.

For `CCN(CC)C(CNCc1cc(F)cc(F)c1)c1ccco1` (configuration not stated), the cytotoxicity at 70.5 h is 20.8%.

As to `Cc1ccc(NC2CCCN(CCc3ccccc3)C2)nn1` (configuration not stated), the cytotoxicity at 70.5 h was -3.93%.

Turning to `CCCc1nnc(N2CCC3(CCC(=O)N(C)C3)CC2)o1`, the cytotoxicity at 70.5 h was found to be 4.55%.

In the case of `Oc1ccccc1CN1CCC(n2cc(-c3ccc(F)cc3)nn2)CC1`, the cytotoxicity at 70.5 h is -4%.

Take `CCCn1cc(NC(=O)c2cccc(CN3CC[C@H](O)C3)c2)nn1`: the cytotoxicity at 70.5 h is -11.9%.

On to `CCCn1cnc(NC(=O)NCC2CCS(=O)(=O)C2)n1` (configuration not stated), for which the cytotoxicity at 70.5 h amounted to 12.9%.

With `CCc1nc(CN(C)C(=O)C2CCC(=O)N(CC3CCCCC3)C2)no1` (configuration not stated), the cytotoxicity at 70.5 h was -4.07%.

For the molecule `Cc1c(CN2CCc3[nH]cnc3C2C2CC2)[nH]c2ccc(F)cc12` (configuration not stated), the cytotoxicity at 70.5 h was determined as 4.41%.

For the molecule `Cc1ccoc1C(=O)N1CCC(n2cc(CO)nn2)CC1`, the cytotoxicity at 70.5 h is -3.4%.

In the case of `CCNC(=O)[C@@H]1C[C@H](N)CN1C(=O)CCc1ccc(C)c(C)c1`, the cytotoxicity at 70.5 h was -3.41%.

With `CSc1nccc(NCc2cc3n(n2)CCCN(S(C)(=O)=O)C3)n1`, the cytotoxicity at 70.5 h was -12.4%.

Regarding `Cc1nccn1CCCN1CCCC(c2nccn2C)C1` (configuration not stated), the cytotoxicity at 70.5 h is 21.3%.

As to `COCCN1C[C@H]2CC[C@@H]1CN(Cc1nc3ccccc3n1C)C2`, the cytotoxicity at 70.5 h was -6.43%.

With `COc1cccc2c1OCC(CNc1ccc(C)nn1)C2` (configuration not stated), the cytotoxicity at 70.5 h was -3.11%.

As for `Cc1cc(C2CCC2)nc(NCC(C)(C)CO)n1`, the cytotoxicity at 70.5 h is -2.23%.

With `CC1=NOC(C(=O)N(C)CCCn2nc(C)cc2C)C1` (configuration not stated), the cytotoxicity at 70.5 h was -0.336%.

Consider `OC[C@H]1CN(Cc2c(Cl)cncc2Cl)C[C@H]1CN1CCCCCC1`, for which the cytotoxicity at 70.5 h was -1.47%.

Regarding `N#Cc1ccccc1CC1CCCS(=O)(=O)C1` (configuration not stated), the cytotoxicity at 70.5 h is 1.43%.

For the molecule `COc1ccc(CN(CC2CCCO2)C(=O)CN2CCCCC2=O)cc1` (configuration not stated), the cytotoxicity at 70.5 h is -12.9%.

On to `Cc1c(NC(=O)NC2CCOCC2)cccc1C(=O)N1CCCC1`, for which the cytotoxicity at 70.5 h amounted to 10.6%.

For the molecule `CC(C)[C@]1(O)CN(C(=O)C2(Cn3cccn3)CC2)C[C@H]1C`, the cytotoxicity at 70.5 h was -7.77%.

Take `CN(Cc1cc(C(C)(C)C)n[nH]1)C(=O)c1ccccc1C1CCNC1` (configuration not stated): the cytotoxicity at 70.5 h is -13.4%.

Regarding `Cc1ccc(-c2cn[nH]c2C2CCCN(c3cnccn3)C2)cc1` (configuration not stated), the cytotoxicity at 70.5 h worked out at 10.6%.

As to `CN1CC(C(=O)N(C)Cc2cc(-c3cccnc3)no2)NC1=O` (configuration not stated), the cytotoxicity at 70.5 h was -8.52%.

`COc1cc(S(=O)(=O)N2C[C@@H](C)[C@@](C)(O)C2)c(C)cc1C`: the cytotoxicity at 70.5 h amounted to 0.245%.

With `COc1ccc(C(=O)N2CCN(c3cc(CCN)nc(C)n3)CC2)cc1`, the cytotoxicity at 70.5 h is -0.395%.

In the case of `CCn1c(C2CCCN(Cc3ccc4ccccc4n3)C2)nn(C)c1=O` (configuration not stated), the cytotoxicity at 70.5 h is -3.7%.

With `CNCCN1C(=O)CC[C@H]2CN(c3ncc(F)cn3)CC[C@H]21`, the cytotoxicity at 70.5 h was 20%.

Take `O=C(Nc1ccc(F)cc1)C1CNCCN1C(=O)CSc1ccncc1` (configuration not stated): the cytotoxicity at 70.5 h is 28.9%.

On to `O=S(=O)(NCc1ccccc1)Nc1ccc(-n2ccnc2)cc1`, for which the cytotoxicity at 70.5 h was 23.3%.

For the molecule `CCc1cnc(N)nc1NC(C)c1cnn(C)c1` (configuration not stated), the cytotoxicity at 70.5 h is -5.96%.

On to `Cn1c(N2CCOCC2)nc2cc(C(=O)NCc3cccnc3)ccc21`, for which the cytotoxicity at 70.5 h is -9.04%.

Consider `O=C1NCCN(C(=O)CN2CCOC2=O)C1c1cccc(F)c1` (configuration not stated), for which the cytotoxicity at 70.5 h is -18.2%.

Regarding `CNc1cc(C)nc(-c2cc(NC3CCNCC3)nc3[nH]ccc23)n1`, the cytotoxicity at 70.5 h is -4.41%.

Regarding `Cc1ncc(C(=O)N2C[C@H](CO)C[C@H](CN3CCOCC3)C2)c(=O)[nH]1`, the cytotoxicity at 70.5 h is 3.07%.

Turning to `CC(C)n1ccnc1C1CCCN(c2ncccc2C(N)=O)C1` (configuration not stated), the cytotoxicity at 70.5 h is -0.947%.

With `O=C1C[C@H]2CC[C@@H](CN1)N2C(=O)CCCc1ccc(Cl)cc1`, the cytotoxicity at 70.5 h was -7.24%.

For `Cc1cccc(CN2CCN(c3ncnc4[nH]cnc34)CC2CCO)n1` (configuration not stated), the cytotoxicity at 70.5 h stood at 9.72%.

As for `Clc1ccc(N2CCC(C3CCN(Cc4cccnc4)CC3)C2)nc1` (configuration not stated), the cytotoxicity at 70.5 h was -8.52%.

As to `Cc1nc(NC(=O)NC2CC(=O)N(C)C2)nn1C(C)C` (configuration not stated), the cytotoxicity at 70.5 h came to 2.26%.

With `CC(Cn1cccn1)n1cnc2cccc(F)c2c1=O` (configuration not stated), the cytotoxicity at 70.5 h was -7.35%.

For `COCC1CCCCN1C(=O)c1cc(Cn2ccc3ccccc32)[nH]n1` (configuration not stated), the cytotoxicity at 70.5 h was -2.47%.

Regarding `c1ccc(COc2ccccc2NC2CCOCC2)nc1`, the cytotoxicity at 70.5 h was -4.09%.

Take `CC(C(=O)O)N1CC2(CCC1=O)CCN(CCSc1ccccc1)CC2` (configuration not stated): the cytotoxicity at 70.5 h is -13.8%.

`Cc1ccc(-c2nc(CN3CCOCS3(=O)=O)c(C)o2)cc1`: the cytotoxicity at 70.5 h is -0.637%.

In the case of `Cc1nccn1CCN(C)C(=O)C1CCN(C(=O)C2CCCC2)CC1`, the cytotoxicity at 70.5 h worked out at 8.88%.

Take `CCN(CC)C(=O)[C@@H]1C[C@@H](N)CN1c1nc(N2CCCC2)nc(C)c1C`: the cytotoxicity at 70.5 h was 25.5%.

`Cc1cnc(N(C)Cc2cnc3ccccc3n2)nc1N(C)C`: the cytotoxicity at 70.5 h was -14.7%.

With `Cn1c(CN2CCC(O)CC2)nnc1C1CCCN(C(=O)C2CNC2)C1` (configuration not stated), the cytotoxicity at 70.5 h was -5.47%.

For the molecule `Cc1ccc(N2CCN(C(=O)CN3C[C@@H]4CC[C@H]3C4)CC2=O)cc1`, the cytotoxicity at 70.5 h is 24.1%.

In the case of `O=S1(=O)COCCN1Cc1ccc(F)c(C(F)(F)F)c1`, the cytotoxicity at 70.5 h is -10.2%.

On to `COCCn1ccnc1C1CCN(C(=O)CSc2nnc(C)o2)CC1`, for which the cytotoxicity at 70.5 h stood at 9.15%.

`O=C(NCCc1csc(-c2ncccn2)n1)c1cnn2c1CCCC2`: the cytotoxicity at 70.5 h was -18.5%.

Consider `CC(C)(C)n1cc(C2=CCN(CCNC(=O)c3ccccc3)CC2)cn1`, for which the cytotoxicity at 70.5 h was -5.4%.

On to `CCCOc1ccc(C(=O)N2C[C@@H](CN3CCCC3)[C@@H](CO)C2)cc1Cl`, for which the cytotoxicity at 70.5 h came to 1.78%.

For the molecule `CC(=O)NCC1CCC2(CCN(c3ncnc4oc(C)nc34)CC2)O1` (configuration not stated), the cytotoxicity at 70.5 h was 21.7%.

Consider `CN(CCNC(=O)c1cccnc1)S(C)(=O)=O`, for which the cytotoxicity at 70.5 h is -5.32%.

In the case of `O=C(N1CCOCC1)N1CC[C@@](O)(c2ccccc2)[C@H]2CCCC[C@@H]21`, the cytotoxicity at 70.5 h was -1.75%.

Regarding `CN(C)CCC1CCCCN1Cc1cnn(C)c1C1CC1` (configuration not stated), the cytotoxicity at 70.5 h was determined as 2.52%.

In the case of `Cc1ccc(C)c(OCc2cc(C(=O)N(C)Cc3nonc3C)no2)c1`, the cytotoxicity at 70.5 h is 3.12%.

For `CN(C)CC(C)(C)CN1CCC(c2ccnc(-c3cccc(O)c3)c2)C1` (configuration not stated), the cytotoxicity at 70.5 h is -8.34%.

On to `Cc1nc2c(C)cccc2cc1C(=O)N1CCC2(CCCNC2)C1` (configuration not stated), for which the cytotoxicity at 70.5 h was -11.4%.

`COC(=O)CCCC(=O)N1CCCCC1c1ccc(F)cc1` (configuration not stated): the cytotoxicity at 70.5 h turned out to be 2.01%.

As to `CS(=O)(=O)N1CCCn2nc(CNc3cc(C#N)ccn3)cc2C1`, the cytotoxicity at 70.5 h is -6.16%.

In the case of `Cc1cnccc1NCCNC1CCSCC1`, the cytotoxicity at 70.5 h was -17.3%.

Regarding `CC(C)c1cc(C(=O)NCCc2nc3c(s2)CCC3)n(C)n1`, the cytotoxicity at 70.5 h came out at 8.71%.

As for `COCCN1CCCC2(CCN(c3cc(C)c(C#N)c(C)n3)C2)C1=O` (configuration not stated), the cytotoxicity at 70.5 h was 14.9%.

Turning to `COc1ccc(-c2n[nH]cc2CN(C)Cc2nccn2C)c(F)c1`, the cytotoxicity at 70.5 h is -3.33%.

Regarding `CCn1nc(C)cc1C(=O)NCc1cccnc1N(C)C`, the cytotoxicity at 70.5 h was 2.09%.

As for `Cc1cc(C)c(C#N)c(NCCSc2nncn2C)n1`, the cytotoxicity at 70.5 h was -6.87%.

Take `CCCn1cc(-c2cc(C(=O)N(C)C)c3cccc(C)c3n2)cn1`: the cytotoxicity at 70.5 h is -7.56%.

`COc1cccn(Cc2nnc(-c3cccc(F)c3)o2)c1=O`: the cytotoxicity at 70.5 h is -3.37%.

For `CN(C)c1cc(N(C)Cc2cc(C(C)(C)C)n[nH]2)ncn1`, the cytotoxicity at 70.5 h was -2.08%.

`Cc1cnc(C)c(-c2cccc(-c3ccn(CCN4CCCC4)n3)c2)n1`: the cytotoxicity at 70.5 h was determined as 11.2%.

`CC(C)n1cnnc1CN(C)Cc1cnc(-c2ccccn2)nc1`: the cytotoxicity at 70.5 h was -5.94%.

Take `COCC1CCN(S(=O)(=O)N2C[C@H](c3ccccc3)[C@@H](N)C2)CC1`: the cytotoxicity at 70.5 h is -1.87%.

Turning to `CCc1nnc(CN(C)C[C@@H]2CCCN3CCCC[C@H]23)o1`, the cytotoxicity at 70.5 h is -3.62%.

Turning to `CCCOc1ccc(C(=O)N2CC[C@H]3CC[C@@H](C2)N3)cc1Cl`, the cytotoxicity at 70.5 h was -14.3%.

Consider `O=C(CCN1CCNCC1)N1CCC2(CC1)c1ccccc1CC2O` (configuration not stated), for which the cytotoxicity at 70.5 h was -6.68%.

In the case of `NCC1Cc2cc(Oc3cc(F)c(CN4CCCC4)c(F)c3)ccc2O1` (configuration not stated), the cytotoxicity at 70.5 h was -11.4%.

In the case of `N#Cc1cccc(NC2CC(=O)N(Cc3ccccc3Cl)C2)n1` (configuration not stated), the cytotoxicity at 70.5 h was found to be 18.9%.

As for `COc1cc(-c2nc(C3CC3)nn2-c2ccnc(C)c2)nc(OC)n1`, the cytotoxicity at 70.5 h was -14.3%.

On to `Cc1cc(F)ccc1OC1(C(=O)O)CCN(Cc2cccnc2)CC1`, for which the cytotoxicity at 70.5 h came to 3.7%.

In the case of `CN(C)Cc1nnc(C2CCCN(c3nc(C(N)=O)cs3)C2)n1C` (configuration not stated), the cytotoxicity at 70.5 h is -7.8%.

As for `CC(Cc1ccccn1)N(C)C(=O)c1ncc[nH]1` (configuration not stated), the cytotoxicity at 70.5 h was -8.42%.

For `Cc1nccn1CCN(C)C(=O)c1cn(-c2ccccc2)nn1`, the cytotoxicity at 70.5 h was determined as 33.5%.

Regarding `Cc1cc(F)ccc1N1CCC(N2C[C@@H](CN(C)C)[C@@H](CO)C2)CC1`, the cytotoxicity at 70.5 h was -6.24%.

Turning to `NC(=O)CN1CCC(C(=O)NCc2nc(-c3ccc(F)cc3)cs2)CC1`, the cytotoxicity at 70.5 h is -0.391%.

As to `CCc1nnc(CN(CC)C(=O)C2CC(=O)N(C(C)(C)C)C2)o1` (configuration not stated), the cytotoxicity at 70.5 h was -4.84%.

Consider `COc1nc(C)c(C(=O)N2CCc3[nH]nc(C4CCCC4)c3C2)s1`, for which the cytotoxicity at 70.5 h is -2%.

Take `CCc1cc(N2CCC(NCCc3ccccc3F)CC2)nc(C)n1`: the cytotoxicity at 70.5 h was found to be 5.19%.
